# Measurements taken from paper PMC11022895 (Drug Metabolism and Disposition, 2021).
# Read-outs that look alike come from different tables or passages of the source.
# Key:
# CYP2E1 [1] = target: T1, CYP2E1 (Homo sapiens, UniProt P05181); experiment: IC50 shift study; type: in vitro ADME
# CYP2E1 [2] = target: T1, CYP2E1; experiment: Inhibition of CYP2E1 probe; type: in vitro ADME; conditions: for IC50: probe chlorzoxazone; for Ki: probe chlorzoxazone (CYP2E1)
# CYP2B6 [3] = target: T2, CYP2B6 (Homo sapiens, UniProt P20813); experiment: Inhibition of CYP2B6 probe; type: in vitro ADME; conditions: for IC50: probe bupropion; for Ki: probe bupropion (CYP2B6)
# T2 sequence (P20813 1-491): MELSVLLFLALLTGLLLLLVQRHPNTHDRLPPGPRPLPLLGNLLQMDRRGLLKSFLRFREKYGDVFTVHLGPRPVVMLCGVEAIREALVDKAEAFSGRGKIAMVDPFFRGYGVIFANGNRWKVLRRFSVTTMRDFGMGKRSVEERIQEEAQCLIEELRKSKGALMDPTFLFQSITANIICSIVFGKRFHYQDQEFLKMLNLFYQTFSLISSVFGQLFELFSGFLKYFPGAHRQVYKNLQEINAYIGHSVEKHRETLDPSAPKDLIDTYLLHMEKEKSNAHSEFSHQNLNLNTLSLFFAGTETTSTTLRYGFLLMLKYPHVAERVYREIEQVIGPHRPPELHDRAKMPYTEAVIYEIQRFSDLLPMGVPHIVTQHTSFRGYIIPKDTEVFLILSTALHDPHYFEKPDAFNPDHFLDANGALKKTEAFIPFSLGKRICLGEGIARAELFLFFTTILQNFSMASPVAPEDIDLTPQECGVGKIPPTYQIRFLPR
# CYP2B6 [4] = target: T2, CYP2B6; experiment: Inhibition of rCYP2B6 in microsomes from CYP450-overexpressing HEK293 cells; type: in vitro ADME; conditions: for IC50 / Ki: probe bupropion; for inhibition of activity against efavirenz: probe efavirenz (Supplemental Table 2)
# CYP1A2 [5] = target: T3, CYP1A2 (Homo sapiens, UniProt P05177); experiment: Inhibition of rCYP1A2 in microsomes from CYP450-overexpressing HEK293 cells; type: in vitro ADME; conditions: probe phenacetin; for Ki: rCYP1A2 microsomes
# T3 sequence (P05177 1-516): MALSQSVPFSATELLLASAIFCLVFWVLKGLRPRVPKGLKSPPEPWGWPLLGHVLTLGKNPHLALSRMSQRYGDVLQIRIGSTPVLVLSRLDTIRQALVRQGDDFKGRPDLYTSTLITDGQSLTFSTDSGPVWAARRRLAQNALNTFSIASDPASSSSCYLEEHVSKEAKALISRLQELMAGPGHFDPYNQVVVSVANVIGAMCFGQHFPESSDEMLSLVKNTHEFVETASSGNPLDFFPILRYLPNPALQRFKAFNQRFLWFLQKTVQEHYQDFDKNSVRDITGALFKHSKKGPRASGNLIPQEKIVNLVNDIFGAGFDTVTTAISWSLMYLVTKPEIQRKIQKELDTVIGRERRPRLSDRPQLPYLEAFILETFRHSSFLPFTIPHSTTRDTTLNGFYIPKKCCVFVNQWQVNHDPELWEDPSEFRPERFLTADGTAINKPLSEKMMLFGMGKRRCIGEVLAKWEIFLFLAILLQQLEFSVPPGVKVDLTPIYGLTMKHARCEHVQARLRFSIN
# [6] = plasma, ref Manini et al., 2015, Cox et al., 2019, cited from earlier work
# CYP2E1 [7] = target: T1, CYP2E1; experiment: Inhibition of rCYP2E1 in microsomes from CYP450-overexpressing HEK293 cells; type: in vitro ADME; conditions: for IC50 / Ki: probe chlorzoxazone; for decrease in activity: CYP2E1
# CYP2C9 = CYP2C9 (Homo sapiens, UniProt P11712); conditions: for inhibition of activity against S-warfarin: rCYP2C9 microsomes, probe S-warfarin (Supplemental Table 2)
# CYP1A2 [8] = target: T3, CYP1A2; experiment: Inhibition of CYP1A2 probe; type: in vitro ADME; conditions: for IC50: probe phenacetin; for Ki: probe phenacetin (CYP1A2)
# [9] = Unbound fraction in incubation; type: in vitro ADME; conditions: human, human liver microsomes in buffer
# CYP2B6 [10] = target: T2, CYP2B6; experiment: IC50 shift study; type: in vitro ADME
# CYP1A2 [11] = target: T3, CYP1A2; experiment: IC50 shift study; type: in vitro ADME
# CYP2D6 = CYP2D6 (Homo sapiens, UniProt P10635); conditions: rCYP2D6 microsomes; probe bufuralol (Supplemental Table 2)
# [12] = Unbound fraction in incubation; type: in vitro ADME; conditions: human, HEK293 cell microsomes in buffer
# [13] = IC50 (+), 30-min preincubation with NADPH
# [14] = IC50 (−), 30-min preincubation without NADPH
# [15] = IC50,u, HLM, corrected for fu,inc
# [16] = Ki,u, HLM, corrected for fu,inc
# [17] = IC50,u, rCYP2B6 microsomes, corrected for fu,inc
# [18] = Ki,u, rCYP2B6 microsomes, corrected for fu,inc
# [19] = IC50,u, rCYP2E1 microsomes, corrected for fu,inc
# [20] = Ki,u, rCYP2E1 microsomes, corrected for fu,inc
# T1 sequence (P05181 whole entry): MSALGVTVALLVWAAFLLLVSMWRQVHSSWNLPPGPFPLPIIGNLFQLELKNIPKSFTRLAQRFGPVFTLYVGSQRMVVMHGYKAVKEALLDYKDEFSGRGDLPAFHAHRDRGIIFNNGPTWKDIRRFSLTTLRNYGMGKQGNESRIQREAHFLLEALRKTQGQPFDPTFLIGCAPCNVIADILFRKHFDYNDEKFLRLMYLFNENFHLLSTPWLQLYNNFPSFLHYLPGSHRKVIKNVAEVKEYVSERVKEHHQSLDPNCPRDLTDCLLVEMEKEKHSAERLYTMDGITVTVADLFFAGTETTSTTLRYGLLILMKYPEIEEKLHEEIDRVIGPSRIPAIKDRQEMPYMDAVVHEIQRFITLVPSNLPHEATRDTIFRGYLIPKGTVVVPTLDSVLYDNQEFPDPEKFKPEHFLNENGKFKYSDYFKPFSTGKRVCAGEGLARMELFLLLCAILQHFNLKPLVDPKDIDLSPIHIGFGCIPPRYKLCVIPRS
# Chain of CYP2C9 (P11712 whole entry): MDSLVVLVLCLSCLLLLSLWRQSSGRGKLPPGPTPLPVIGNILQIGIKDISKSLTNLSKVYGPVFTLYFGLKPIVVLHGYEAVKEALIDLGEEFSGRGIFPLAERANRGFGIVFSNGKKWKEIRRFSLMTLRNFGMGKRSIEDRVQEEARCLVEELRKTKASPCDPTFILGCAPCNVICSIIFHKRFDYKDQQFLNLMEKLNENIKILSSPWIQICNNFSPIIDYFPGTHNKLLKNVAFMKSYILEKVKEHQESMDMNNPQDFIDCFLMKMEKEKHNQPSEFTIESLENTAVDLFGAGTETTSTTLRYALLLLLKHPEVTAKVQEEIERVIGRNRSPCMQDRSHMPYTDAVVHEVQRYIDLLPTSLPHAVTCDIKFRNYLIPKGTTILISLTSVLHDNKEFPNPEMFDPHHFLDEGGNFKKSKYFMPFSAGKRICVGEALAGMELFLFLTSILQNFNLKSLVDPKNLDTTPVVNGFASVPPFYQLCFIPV
# Chain of CYP2D6 (P10635 whole entry): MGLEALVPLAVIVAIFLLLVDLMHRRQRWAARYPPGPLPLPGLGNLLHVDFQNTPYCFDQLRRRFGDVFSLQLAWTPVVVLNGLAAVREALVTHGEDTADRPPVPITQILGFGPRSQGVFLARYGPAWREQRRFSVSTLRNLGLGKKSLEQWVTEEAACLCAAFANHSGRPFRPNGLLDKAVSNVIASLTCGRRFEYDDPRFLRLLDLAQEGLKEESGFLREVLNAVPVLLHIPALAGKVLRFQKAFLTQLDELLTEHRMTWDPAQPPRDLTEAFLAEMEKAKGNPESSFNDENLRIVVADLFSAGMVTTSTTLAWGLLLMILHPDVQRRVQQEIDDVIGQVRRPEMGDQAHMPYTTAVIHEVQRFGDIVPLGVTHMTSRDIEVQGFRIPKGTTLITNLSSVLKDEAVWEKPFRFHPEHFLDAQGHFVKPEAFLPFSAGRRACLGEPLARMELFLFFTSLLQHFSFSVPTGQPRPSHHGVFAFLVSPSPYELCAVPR
Structure (SMILES),IC50 (CYP2E1 [1]; [13]) [nM],IC50 (CYP2E1 [1]; [14]) [nM],"IC50 (CYP2E1 [2]; IC50, HLM) [nM]",IC50 (CYP2E1 [2]; [15]) [nM],"Ki (CYP2E1 [2]; Ki, HLM) [nM]",Ki (CYP2E1 [2]; [16]) [nM],"IC50 (CYP2B6 [3]; IC50, HLM) [nM]",IC50 (CYP2B6 [3]; [15]) [nM],"Ki (CYP2B6 [3]; Ki, HLM) [nM]",Ki (CYP2B6 [3]; [16]) [nM],"IC50 (CYP2B6 [4]; IC50, rCYP2B6 microsomes) [nM]",IC50 (CYP2B6 [4]; [17]) [nM],"Ki (CYP2B6 [4]; Ki, rCYP2B6 microsomes) [nM]",Ki (CYP2B6 [4]; [18]) [nM],inhibition of activity against efavirenz (CYP2B6 [4]; rCYP2B6 microsomes),"IC50 (CYP2E1 [7]; IC50, rCYP2E1 microsomes) [nM]",IC50 (CYP2E1 [7]; [19]) [nM],"Ki (CYP2E1 [7]; Ki, rCYP2E1 microsomes) [nM]",Ki (CYP2E1 [7]; [20]) [nM],inhibition of activity against S-warfarin (CYP2C9),further results
"C=C(C)[C@@H]1CCC(C)=C[C@H]1c1c(O)cc(CCCCC)cc1O [CBD, cannabidiol]",900 ± 400,1100 ± 660,1400 ± 250,140 ± 25,590 ± 230,58 ± 23,2700 ± 2400,260 ± 240,2200 ± 530,220 ± 52,2100 ± 610,130 ± 38,1100 ± 240,68 ± 15,Strong inhibition,590 ± 130,37 ± 8.1,340 ± 98,21 ± 6.1,Strong inhibition,"IC50 (CYP1A2 [5]; IC50, rCYP1A2 microsomes): 2100 ± 930 nM; Ki (CYP1A2 [5]; Ki): 1900 ± 1200 nM; Ki (CYP1A2 [5]; Ki,u, corrected for fu,inc): 120 ± 74 nM; Cmax ([6]; 20-mg inhaled dose of CBD): 10.3 nM; Cmax ([6]; oral dose of 800 mg of CBD): 703 nM; IC50 (CYP1A2 [8]; IC50, HLM): 6800 ± 1500 nM; IC50 (CYP1A2 [8]; [15]): 670 ± 150 nM; Ki (CYP1A2 [8]; Ki, HLM): 2100 ± 1100 nM; Ki (CYP1A2 [8]; [16]): 210 ± 110 nM; fraction unbound at 30 min, 50 µM [9]: 0.098 ± 0.023; IC50 (CYP2B6 [10]; [13]): 1300 ± 450 nM; IC50 (CYP2B6 [10]; [14]): 1900 ± 660 nM; IC50 (CYP1A2 [11]; [13]): 1800 ± 310 nM; IC50 (CYP1A2 [11]; [14]): 2100 ± 250 nM; inhibition of activity against bufuralol (CYP2D6): Strong inhibition"
"CCCCCc1cc(O)c2c(c1)OC(C)(C)c1ccc(C)cc1-2 [CBN, cannabinol]",730 ± 210,870 ± 150,1100 ± 720,570 ± 370,330 ± 91,170 ± 47,1700 ± 590,880 ± 310,1700 ± 420,880 ± 220,2100 ± 870,630 ± 260,620 ± 190,190 ± 57,Strong inhibition,920 ± 100,280 ± 30,210 ± 97,63 ± 29,Strong inhibition,"decrease in activity (CYP2B6 [4]; CYP2B6, 10 µM cannabinoid): 75%; decrease in activity (CYP2E1 [7]; 1 µM cannabinoid): 77%; decrease in activity (CYP2E1 [7]; 10 µM cannabinoid): 80%; decrease in activity (CYP2C9; CYP2C9, 10 µM cannabinoid): 55%; fraction unbound at 30 min, 50 µM [9]: 0.052 ± 0.081; fraction unbound at 30 min, 50 µM [12]: 0.03 ± 0.052; IC50 (CYP2B6 [10]; [13]): 2000 ± 700 nM; IC50 (CYP2B6 [10]; [14]): 2100 ± 830 nM; inhibition of activity against bufuralol (CYP2D6): no inhibition was observed"
